Experimental data published in patent publication US6534524B1, “Indazole compounds and pharmaceutical compositions for inhibiting protein kinases, and methods for their use” (Agouron Pharmaceuticals, Inc., priority 1999, dated 2003).
Where two headings read alike, the source gives them in different places.

Key:
[1] = Determination of inhibitor concentration in mouse plasma after intraperitoneal and oral dosing; format: in vivo
Procedure, shortened: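 Mice dosed intraperitoneally or orally; blood taken by ocular bleed at 0.5, 1 and 4 h and by intracardiac puncture at 7 h. Plasma extracted with ethyl acetate after internal standard and NaOH addition, analysed by HPLC or LC-MS against a mouse-plasma standard curve.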

[2] = target: unphosphorylated VEGF-R2Δ50 (FLVK) (Homo sapiens, UniProt P35968, DEL940-989/E990V); experiment: VEGF-R2 coupled spectrophotometric assay, unphosphorylated VEGF-R2Δ50 (FLVK); conditions: for Ki: FLVK Ki, Table 1
Sequence of unphosphorylated VEGF-R2Δ50 (FLVK) (P35968 with tags, fused parts or gaps DEL940-989/E990V limits assumed): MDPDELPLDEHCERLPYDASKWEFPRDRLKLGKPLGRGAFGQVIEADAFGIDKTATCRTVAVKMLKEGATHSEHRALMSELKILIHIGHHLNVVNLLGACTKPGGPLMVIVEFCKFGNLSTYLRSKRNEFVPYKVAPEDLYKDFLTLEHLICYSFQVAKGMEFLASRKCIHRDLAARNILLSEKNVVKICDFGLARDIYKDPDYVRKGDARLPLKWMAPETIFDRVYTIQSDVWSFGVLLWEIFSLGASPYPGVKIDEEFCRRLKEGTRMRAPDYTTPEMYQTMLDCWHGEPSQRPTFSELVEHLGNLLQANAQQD

[3] = tested on: human umbilical vein endothelial cells (HUVEC); experiment: HUVEC proliferation assay (VEGF-stimulated, MTT); format: cell-based; conditions: Homo sapiens, HUVEC
[4] = tested on: retinal vasculature (VEGF dependent); experiment: In vivo assay of retinal vascular development in neonatal rats; conditions: P8 model; intravitreal; 5 mg/ml; vehicle PEG/water 50:50
[5] = Human liver microsome (HLM) assay; format: in vitro ADME; conditions: human liver microsomes, 5 μM test compound
Procedure, shortened: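 Compound metabolism in human liver microsomes measured in triplicate. Samples at 0 and 2 h centrifuged at 14000 g for 10 min and analysed by LC-MS.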

[6] = target: human FGF-R1 (Homo sapiens, UniProt P11362, C488A/C584S/L457V); experiment: FGF-R spectrophotometric assay
Sequence of human FGF-R1 (P11362 456-766 L457V/C488A/C584S): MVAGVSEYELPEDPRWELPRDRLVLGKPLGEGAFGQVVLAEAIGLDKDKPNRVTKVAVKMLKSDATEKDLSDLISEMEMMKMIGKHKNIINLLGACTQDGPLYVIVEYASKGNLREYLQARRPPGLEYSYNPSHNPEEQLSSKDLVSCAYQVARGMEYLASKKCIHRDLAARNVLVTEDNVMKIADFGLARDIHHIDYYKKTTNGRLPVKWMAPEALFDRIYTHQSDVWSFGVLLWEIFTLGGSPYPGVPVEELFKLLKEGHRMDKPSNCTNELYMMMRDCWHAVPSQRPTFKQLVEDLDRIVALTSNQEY

[7] = tested on: lung cancer cells (line MV522); experiment: Cancer cell proliferation (MV522) assay; format: cell-based
Procedure: Cancer Cell Proliferation (MV522) Assay
The protocol for assessing cellular proliferation in cancer cells is similar to that used for assessments in HUVEC cells. Two thousand lung cancer cells (line MV522, acquired from American Tissue Cultural Collection) were seeded in growth media (RPMI1640 medium supplemented with 2 mM glutamine and 10% FBS). Cells are allowed to attach for 1 day prior to addition of test agents and/or vehicles. Cells are treated simultaneously with the same test agents used in the HUVEC assay. Cellular proliferation is quantified by MTT dye reduction assay 72 hours after exposure to test agents. The total length of the assay is 4 days vs. 5 for HUVEC cells because MV522 cells are not exposed to starvation medium.

[8] = tested on: VEGF dependent retinal neovascularization; experiment: In vivo assay of retinal vascular development in neonatal rat model of retinopathy of prematurity; conditions: ROP model, intravitreal, vehicle PEG/water 70:30; for % inhibition: 1 mg/ml
Procedure: In Vivo Assay of Retinal Vascular Development in Neonatal Rat Model of Retinopathy of Prematurity A second model of VEGF dependent retinal neovascularization was employed to evaluate the activities of this series of compounds. […] This alternating cycle of hyperoxia followed by hypoxia is repeated 7 times after which the animals are removed to room air (P14). Compounds are administered via intravitreal injection upon removal to room air and the animals are sacrificed 6 days later (P20). The isolated retinas are then isolated, stained mounted and analyzed as detail above in the development model. The effectiveness was also graded as is described for the development model.

[9] = target: T1, LCK tyrosine kinase (Homo sapiens, UniProt P06239, C224D/P223M); experiment: LCK spectrophotometric assay; format: biochemical; conditions: Table 1; compound concentration 1 μM; read-out: Lck-P % inhibition
T1 construct: starting from amino acid residue 223 to the end of the protein at residue 509; made in house; host or cells: insect cells
T1 sequence (P06239 223-509 P223M/C224D): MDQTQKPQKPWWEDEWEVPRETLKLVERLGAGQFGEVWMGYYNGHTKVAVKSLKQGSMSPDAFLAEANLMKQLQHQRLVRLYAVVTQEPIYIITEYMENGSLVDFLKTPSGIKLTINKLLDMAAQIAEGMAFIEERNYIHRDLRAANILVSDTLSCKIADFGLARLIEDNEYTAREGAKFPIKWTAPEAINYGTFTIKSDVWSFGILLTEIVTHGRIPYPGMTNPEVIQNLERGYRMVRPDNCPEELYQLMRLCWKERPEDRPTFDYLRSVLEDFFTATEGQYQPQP
Procedure: The production of ADP from ATP that accompanies phosphoryl transfer was coupled to oxidation of NADH using phosphoenolpyruvate (PEP) and a system having pyruvate kinase (PK) and lactic dehydrogenase (LDH). The oxidation of NADH was monitored by following the decrease of absorbance at 340 nm (e340=6.22 cm^−1 mM^−1) using a Beckman DU 650 spectrophotometer. […] Ki values were determined by measuring enzyme activity in the presence of varying concentrations of test compounds. The data were analyzed using Enzyme Kinetic and Kaleidagraph software.
The spectrophotometric assay was carried out as described above for VEGF-R2, except for the following changes in concentration: LCK=60 nM, MgCl2=0 mM, poly(E4Y1)=20 mM.

[10] = IP, 25 mg/kg, vehicle PEG400:H2O pH 2.3 30:70
[11] = PO, 50 mg/kg, vehicle PEG400:H2O pH 2.3 30:70
[12] = female, IP, 25 mg/kg, vehicle PEG400:H2O pH 2.3 30:70, read-out: Cmin (7 hr conc.)
[13] = female, PO, 50 mg/kg, vehicle PEG400:H2O pH 2.3 30:70, read-out: Cmin (7 hr conc.)
[14] = + albumin, read-out: HUVEC + albumin IC50
[15] = PO, 10 mg/kg, vehicle PEG400:H2O pH 2.3 30:70
[16] = PO, 25 mg/kg, vehicle PEG400:H2O pH 2.3 30:70
[17] = female, PO, 25 mg/kg, vehicle PEG400:H2O pH 2.3 30:70, read-out: Cmin (7 hr conc.)
[18] = IP, 25 mg/kg, vehicle PEG400:H2O pH 2.3 60:40
[19] = PO, 50 mg/kg, vehicle PEG400:H2O pH 2.3 60:40
[20] = female, IP, 25 mg/kg, vehicle PEG400:H2O pH 2.3 60:40, read-out: Cmin (7 hr conc.)
[21] = female, PO, 50 mg/kg, vehicle PEG400:H2O pH 2.3 60:40, read-out: Cmin (7 hr conc.)
[22] = female, IP, 25 mg/kg, vehicle PEG400:H2O pH 2.3 30:70
[23] = female, PO, 50 mg/kg, vehicle PEG400:H2O pH 2.3 30:70

## C=CCONC(=O)c1ccccc1Sc1ccc2c(/C=C/c3ccccn3)n[nH]c2c1 [Example 35(j), 6-[2-(Allyloxycarbamoyl)phenylsulfanyl]-3-E-[2-(pyridin-2-yl)ethenyl]-1H-indazole]
[1]; [10]
  AUClast: 9531 ng·h/mL
  plasma half-life (T1/2): 1.3 h
[1]; [11]
  AUClast: 1328 ng·h/mL
  plasma half-life (T1/2): 4.5 h
[1]; [12]
  concentration at 7 h: 52 ng/mL
[1]; [13]
  concentration at 7 h: 5 ng/mL
[2]; read-out: FLVK % inhibition
  inhibition at 0.05 µM: 99%
[3]; [14]
  IC50: 1.5 nM
[4]
  % inhibition: 7%
[5]
  % remain (HLM, 2 h): 5%

## CCn1nc(C)cc1C(=O)Nc1cccc(Oc2ccc3c(/C=C/c4ccccn4)n[nH]c3c2)c1 [Example 31(d), 6-[3-((1-Ethyl-3-methyl-1H-pyrazol-5-yl)carboxamido)phenoxy]-3-E-[2-(pyridin-2-yl)ethenyl]-1H-indazole]
[1]; [10]
  AUClast: 237784 ng·h/mL
  Cmax: 64184 ng/mL
  plasma half-life (T1/2): 5.3 h
[1]; [15]
  AUClast: 49120 ng·h/mL
  Cmax: 9740 ng/mL
  plasma half-life (T1/2): 3.1 h
[1]; [16]
  AUClast: 203860 ng·h/mL
  Cmax: 50810 ng/mL
  plasma half-life (T1/2): 1.9 h
[1]; [11]
  AUClast: 430683 ng·h/mL
  Cmax: 76915 ng/mL
  plasma half-life (T1/2): 39.3 h
[1]; [12]
  concentration at 7 h: 15100 ng/mL
[1]; female, PO, 10 mg/kg, vehicle PEG400:H2O pH 2.3 30:70, read-out: Cmin (7 hr conc.)
  concentration at 7 hr: 2020 ng/mL
[1]; [17]
  concentration at 7 h: 3800 ng/mL
[1]; [13]
  concentration at 7 h: 42500 ng/mL
[4]
  % inhibition: 12%
[5]
  % remain (HLM, 2 h): 110%
[6]
  Ki: 14 nM

## O=C(c1cccc(NC(=O)c2cccc3[nH]ccc23)c1)c1ccc2c(/C=N/n3cccc3)n[nH]c2c1 [Example 45(a), 6-[3-(Indol-4-ylcarboxamido)benzoyl]-3-E-[N-(pyrrol-1-yl)iminomethyl]-1H-indazole]
[3]; [14]
  IC50: ~15 nM
[3]; read-out: HUVEC IC50
  IC50: 3.1 nM
[7]
  IC50: 3.5 µM

## C/C=C/C(=O)Nc1cccc(C(=O)c2ccc3c(/C=C/c4ccccn4)n[nH]c3c2)c1 [Example 41(c), 6-(3-Crotonylamidobenzoyl)-3-E-[2-(pyridin-2-yl)ethenyl]-1H-indazole]
[1]; [18]
  AUClast: 3397 ng·h/mL
  plasma half-life (T1/2): 1.7 h
[1]; [19]
  AUClast: 3182 ng·h/mL
  plasma half-life (T1/2): 2.6 h
[1]; [20]
  concentration at 7 h: 57 ng/mL
[1]; [21]
  concentration at 7 h: 104 ng/mL
[2]
  Ki: 0.22 nM
[4]
  Initial Evaluation: ++ (two pluses being judged to be approximately 25-75% regression)
[8]
  % inhibition: 16%
[8]; 10 mg/ml
  Initial Evaluation: +++ (three pluses give to retinas with near total regression (approximately 75% or greater))
[5]
  % remain (HLM, 2 h): 68%

## O=C(c1cccc(NC(=O)c2cccc3[nH]ccc23)c1)c1ccc2c(/C=C/c3ccccn3)n[nH]c2c1 [Example 41(d), 6-[3-(Indol-4-ylcarboxamido)benzoyl]-3-E-[2-(pyridin-2-yl)ethenyl]-1H-indazole]
[1]; [18]
  AUClast: 10324 ng·h/mL
  plasma half-life (T1/2): 2.8 h
[1]; [19]
  AUClast: 7072 ng·h/mL
  plasma half-life (T1/2): 1.5 h
[1]; [20]
  concentration at 7 h: 573 ng/mL
[1]; [21]
  concentration at 7 h: 150 ng/mL
[2]
  Ki: 0.093 nM
[8]
  % inhibition: 0%

## Cc1cc(C(=O)Nc2cc(Nc3ccc4c(/C=C/c5ccccn5)n[nH]c4c3)ccc2F)n(C)n1 [Example 49(a), 6-[N-(3-((1,3-Dimethyl-1H-pyrazol-5-yl)carboxamido)-4-fluoro-phenyl)amino]-3-E-[2-(pyridin-2-yl)ethenyl]-1H-indazole]
[1]; [16]
  AUClast: 712 ng·h/mL
[1]; [17]
  concentration at 7 h: 15 ng/mL
[3]; [14]
  IC50: ~4 nM
[9]
  inhibition at 1 µM: 11%
[7]
  IC50: 8.4 µM
[6]
  Ki: 79 nM

## CCn1nc(C)cc1C(=O)Nc1cc(C(=O)c2ccc3c(/C=C/c4ccccn4)n[nH]c3c2)ccc1C [Example 41(ee), 6-[3-((1-Ethyl-3-methyl-1H-pyrazol-5-yl)carboxanido)-4-methylbenzoyl]-3-E-[2-(pyridin-2-yl)ethenyl]-1H-indazole]
[1]; [10]
  plasma half-life (T1/2): 4.0 h
[1]; [11]
  plasma half-life (T1/2): 3.4 h
[1]; [22]
  AUC(0-t): > 28400 ng·h/mL
[1]; [12]
  concentration at 7 h: 1670 ng/mL
[1]; [23]
  AUC(0-t): > 25300 ng·h/mL
[1]; [13]
  concentration at 7 h: 1210 ng/mL
[2]
  Ki: 0.13 nM
[4]
  Initial Evaluation: +/++ var
[5]
  % remain (HLM, 2 h): 47%

## Cc1cc(C(=O)Nc2cc(C(=O)c3ccc4c(/C=C/c5ccccn5)n[nH]c4c3)c(C)cc2C)n(C)n1 [Example 41(mm), 6-[2,4-Dimethyl-5-((1,3-dimethyl-1H-pyrazol-5-yl)carboxamido)benzoyl]-3-E-[2-(pyridin-2-yl)ethenyl]-1H-indazole]
[1]; [16]
  AUClast: 2261 ng·h/mL
  Cmax: 852 ng/mL
  plasma half-life (T1/2): 2.5 h
[1]; [17]
  concentration at 7 h: 127 ng/mL
[4]
  Initial Evaluation: + (one plus being detectable regression judged to be approximately 25 percent or less)
[5]
  % remain (HLM, 2 h): 94%

## CS(=O)(=O)c1ccc(C(=O)Nc2cccc(Oc3ccc4c(/C=C/c5ccccn5)n[nH]c4c3)c2)s1 [Example 31(c), 6-[3-((5-Methylsulfonylthien-2-yl)carboxanido)phenoxy]-3-E-[2-(pyridin-2-yl)ethenyl]-1H-indazole]
[2]
  Ki: < 0.1 nM
[4]
  Initial Evaluation: +/++ var
[5]
  % remain (HLM, 2 h): 87%

## CCCn1nc(C)cc1C(=O)Nc1cccc(C(=O)c2ccc3c(/C=C/c4ccccn4)n[nH]c3c2)c1 [Example 41(r), 6-[3-((1-n-Propyl-3-methyl-1H-pyrazol-5-yl)carboxamido)benzoyl]-3-E-[2-(pyridin-2-yl)ethenyl]-1H-indazole]
[1]; [22]
  AUC(0-t): > 23800 ng·h/mL
[1]; female, IP, 25 mg/kg, vehicle PEG400:H2O pH 2.3 30:70, read-out: Cmax
  Cmax: > 5000 ng/mL
[1]; [12]
  concentration at 7 h: > 5000 ng/mL
[1]; [23]
  AUC(0-t): > 17800 ng·h/mL
[1]; female, PO, 50 mg/kg, vehicle PEG400:H2O pH 2.3 30:70, read-out: Cmax
  Cmax: > 5000 ng/mL
[1]; [13]
  concentration at 7 h: > 5000 ng/mL
[4]
  Initial Evaluation: +/++ var
[5]
  % remain (HLM, 2 h): 83%

## CCONC(=O)c1ccccc1Sc1ccc2c(/C=C/c3ccccn3)n[nH]c2c1 [Example 35(dd), 6-[2-(Ethoxycarbamoyl)phenylsulfanyl]-3-E-[2-(pyridin-2-yl)ethenyl]-1H-indazole]
[2]
  Ki: 0.6 nM
[4]
  Initial Evaluation: ++/+++ var
[5]
  % remain (HLM, 2 h): 26%
[6]
  Ki: 75 nM
